Reference: patent publication US8710083B2, “Pyridylphenyl compounds for inflammation and immune-related uses” (Synta Pharmaceuticals Corp., priority 2006, dated 2014)
Where a name gives a salt, the structure may show the parent alone.

Test system: IL-2 production
Test: Inhibition of IL-2 production in PHA-activated Jurkat cells (ELISA)
Assay type: cell-based
Settings: PHA 2.5 μg/mL, IL-2 ELISA
Procedure: Jurkat cells were placed in a 96 well plate (0.5 million cells per well in 1% FBS medium) then a test compound of this invention was added at different concentrations. After 10 minutes, the cells were activated with PHA (final concentration 2.5 μg/mL) and incubated for 20 hours at 37° C. under CO2. The final volume was 200 μL. Following incubation, the cells were centrifuged and the supernatants collected and stored at −70° C. prior to assaying for IL-2 production. A commercial ELISA kit (IL-2 Eli-pair, Diaclone Research, Besancon, France) was used to detect production of IL-2, from which dose response curves were obtained. The IC50 value was calculated as the concentration at which 50% of maximum IL-2 production after stimulation was inhibited versus a non-stimulation control.

Row | SMILES | IC50 (Homo sapiens, Jurkat, 20 h) [nM] | IC50 (20 hours) [nM]
1 | COC(=O)c1ccc(Cl)c(-c2ccc(NC(=O)c3c(F)cccc3F)nc2)c1 [Compound 6, 4-Chloro-3-[6-(2,6-difluoro-benzoylamino)-pyridin-3-yl]-benzoic acid methyl ester] | 6 | –
2 | COC(=O)c1ccc(C)c(-c2ccc(NC(=O)c3c(F)cccc3F)nc2)c1 [Compound 7, 3-[6-(2,6-Difluoro-benzoylamino)-pyridin-3-yl]-4-methyl-benzoic acid methyl ester] | 4 | –
3 | O=C(Nc1ccc(-c2cc(-c3ncco3)ccc2Cl)cn1)c1c(F)cccc1F [Compound 8, N-[5-(2-Chloro-5-oxazol-2-yl-phenyl)-pyridin-2-yl]-2,6-difluoro-benzamide] | 3 | –
4 | O=C(Nc1ccc(-c2cc(-c3nccs3)ccc2Cl)cn1)c1c(F)cccc1F [Compound 10, N-[5-(2-Chloro-5-thiazol-2-yl-phenyl)-pyridin-2-yl]-2,6-difluoro-benzamide] | 2 | –
5 | Cc1ccc(-c2ncco2)cc1-c1ccc(NC(=O)c2c(F)cccc2F)cn1 [Compound 13, 2,6-Difluoro-N-[6-(2-methyl-5-oxazol-2-yl-phenyl)-pyridin-3-yl]-benzamide] | – | 14
6 | Cc1cc(NC(=O)c2c(F)cccc2F)ncc1-c1cccc(C(F)(F)F)c1 [Compound 14, 2,6-Difluoro-N-[4-methyl-5-(3-trifluoromethyl-phenyl)-pyridin-2-yl]-benzamide] | 16 | –
7 | Cc1nc(NC(=O)c2c(F)cccc2F)ccc1-c1cccc(C(F)(F)F)c1 [Compound 15, 2,6-Difluoro-N-[6-methyl-5-(3-trifluoromethyl-phenyl)-pyridin-2-yl]-benzamide] | 98 | –
8 | Cc1nnsc1C(=O)Nc1ccc(-c2cc(C(F)(F)F)ccc2Cl)cn1 [Compound 16, 4-Methyl-[1,2,3]thiadiazole-5-carboxylic acid [5-(2-chloro-5-trifluoromethyl-phenyl)-pyridin-2-yl]-amide] | 15 | –
9 | Cc1nnsc1C(=O)Nc1ccc(-c2cc(-c3nccs3)ccc2Cl)cn1 [Compound 17, 4-Methyl-[1,2,3]thiadiazole-5-carboxylic acid [5-(2-chloro-5-thiazol-2-yl-phenyl)-pyridin-2-yl]-amide] | 2 | –
10 | Cc1ccc(-c2ncco2)cc1-c1ccc(NC(=O)c2snnc2C)nc1 [Compound 18, 4-Methyl-[1,2,3]thiadiazole-5-carboxylic acid [5-(2-methyl-5-oxazol-2-yl-phenyl)-pyridin-2-yl]-amide] | 12 | –
11 | Cc1nnsc1C(=O)Nc1ccc(-c2cc(-c3ncco3)ccc2Cl)cn1 [Compound 19, 4-Methyl-[1,2,3]thiadiazole-5-carboxylic acid [5-(2-chloro-5-oxazol-2-yl-phenyl)-pyridin-2-yl]-amide] | 7 | –
12 | Cc1ccc(-c2ncco2)cc1-c1ccc(NC(=O)c2c(F)cccc2F)cn1 [Compound 20, 2,6-Difluoro-N-[6-(2-methyl-5-oxazol-2-yl-phenyl)-pyridin-3-yl]-benzamide hydrochloride] | 12 | –
13 | Cc1ccc(-c2cnco2)cc1-c1ccc(NC(=O)c2snnc2C)nc1 [Compound 21, 4-methyl-N-(5-(2-methyl-5-(oxazol-5-yl)phenyl)pyridin-2-yl)-1,2,3-thiadiazole-5-carboxamide] | 31 | –
14 | COc1ccc(-c2cnco2)cc1-c1ccc(NC(=O)c2snnc2C)nc1 [Compound 67, N-(5-(2-methoxy-5-(oxazol-5-yl)phenyl)pyridin-2-yl)-4-methyl-1,2,3-thiadiazole-5-carboxamide] | 7 | –
15 | Cc1ccc(-c2ccno2)cc1-c1ccc(NC(=O)c2snnc2C)nc1 [Compound 68, N-(5-(5-(isoxazol-5-yl)-2-methylphenyl)pyridin-2-yl)-4-methyl-1,2,3-thiadiazole-5-carboxamide] | 38 | –
16 | Cc1ccc(-c2nnco2)cc1-c1ccc(NC(=O)c2c(F)cccc2F)nc1 [Compound 69, 2,6-difluoro-N-(5-(2-methyl-5-(1,3,4-oxadiazol-2-yl)phenyl)pyridin-2-yl)benzamide] | 73 | –
17 | Cc1ccc(-c2cnco2)cc1-c1ccc(NC(=O)c2c(F)cccc2F)nc1 [Compound 70, 2,6-difluoro-N-(5-(2-methyl-5-(oxazol-5-yl)phenyl)pyridin-2-yl)benzamide] | 9 | –
18 | O=C(Nc1ccc(-c2cc(-c3nnco3)ccc2Cl)cn1)c1c(F)cccc1F [Compound 71, N-(5-(2-chloro-5-(1,3,4-oxadiazol-2-yl)phenyl)pyridin-2-yl)-2,6-difluorobenzamide] | 17 | –
19 | O=C(Nc1ccc(-c2cc(-c3nccs3)ccc2Cl)nc1)c1c(F)cccc1F [Compound 72, N-(6-(2-chloro-5-(thiazol-2-yl)phenyl)pyridin-3-yl)-2,6-difluorobenzamide] | 17 | –
20 | Cc1ccc(-c2nccs2)cc1-c1ccc(NC(=O)c2c(F)cccc2F)cn1 [Compound 74, 2,6-Difluoro-N-(6-(2-methyl-5-(thiazol-2-yl)phenyl)pyridin-3-yl)benzamide] | 25 | –
21 | Cc1ccc(-c2nnco2)cc1-c1ccc(NC(=O)c2c(F)cccc2F)cn1 [Compound 75, 2,6-Difluoro-N-(6-(2-methyl-5-(1,3,4-oxadiazol-2-yl)phenyl)pyridin-3-yl)benzamide] | 98 | –
22 | O=C(Nc1ccc(-c2cc(-c3ncco3)ccc2Cl)nc1)c1c(F)cccc1F [Compound 76, N-(6-(2-chloro-5-(oxazol-2-yl)phenyl)pyridin-3-yl)-2,6-difluorobenzamide] | 9 | –
23 | O=C(Nc1ccc(-c2cc(-c3ncco3)ccc2Cl)nc1)c1c(F)cccc1F [Compound 77, N-(6-(2-chloro-5-(oxazol-2-yl)phenyl)pyridin-3-yl)-2,6-difluorobenzamide hydrochloric acid salt] | – | 11
24 | Cc1ccc(-c2cnco2)cc1-c1ccc(NC(=O)c2c(F)cccc2F)cn1 [Compound 78, 2,6-Difluoro-N-(6-(2-methyl-5-(oxazol-5-yl)phenyl)pyridin-3-yl)benzamide] | 10 | –
25 | Cc1ccc(-c2ncco2)cc1-c1ccc(NC(=O)c2ccc(Cl)cc2F)cn1 [Compound 80, 4-chloro-2-fluoro-N-(6-(2-methyl-5-(oxazol-2-yl)phenyl)pyridin-3-yl)benzamide] | 180 | –
